What was measured:
[1] = Acute toxicity on mice, oral (LD50, Litchfield-Wilcoxon, 7 days observation); conditions: mouse, in vivo
Protocol: (1) Acute toxicity on mice
The test is carried out on male and female white mice belonging to the CFLP strain and weighing 18-22 g. The test compound is administered orally and the animals are observed for a period of 7 days. In the groups for each dose half of the animals are male and the other half are female. The animals are kept in a plastic box (39×12×12 cm) on scrapings litter at room temperature. The mice receive standard fodder and tap water ad libitum. The toxicity data are determined by the method of Litchfield-Wilcoxon.
The test compounds are used in a suspension formed with 0.5% carboxymethyl cellulose.

[2] = tested on: tetrabenazine ptosis on mice; assay: Antagonism of tetrabenazine ptosis on mice, p.o.; format: in vivo; conditions: for ED50: Mus musculus, po, 0.5 h, 50 mg./kg. tetrabenazine i.p. 30 minutes later
Protocol: (§1) (2) Antagonism of Tetrabenazine ptosis on mice and rats, p.o. […] The results are evaluated as follows: on the basis of all the measured data an average ptosis is calculated for each group and the deviation from the average of the control group is expressed in percents (inhibition). The ED50 values are calculated from the data thus obtained.

[3] = tested on: tetrabenazine ptosis on rats; assay: Antagonism of tetrabenazine ptosis on rats, p.o.; format: in vivo; conditions: Rattus norvegicus, po
Protocol: as §1

reserpine ptosis on mice = assay: Antagonism of reserpine ptosis on mice, p.o.; format: in vivo; conditions: for ED50: Mus musculus, po, 1 h, 60 minutes after 6 mg./kg. reserpine s.c.
Protocol: (3) Antagonism of reserpine ptosis on mice, p.o. Animal groups consisting of 10 mice each are treated subcutaneously with 6 mg./kg. of reserpine. The test compound is administered orally after 60 minutes. The animals showing a ptosis are counted after 60 and 120 minutes. The evaluation is carried out as described in connection with the previous ptosis test No. 2.

reserpine ptosis on rats = assay: Antagonism of reserpine ptosis on rats, p.o.; format: in vivo; conditions: Rattus norvegicus, po, 1 h, 60 minutes after 2.5 mg./kg. reserpine s.c.
Protocol: (4) Antagonism of reserpine ptosis on rats, p.o. […] The animals showing ptosis are counted until the effect decreases. The evaluation is carried out as described in connection with the previous ptosis test (test 2).

[4] = tested on: yohimbine toxicity on mice; assay: Potentiation of yohimbine toxicity on mice (method of Quinton); format: in vivo; conditions: for ED50: Mus musculus, ip, read-out: ED50, potentiation of yohimbine toxicity; for Ther. index, potentiation of yohimbine toxicity: mice
Protocol: (5) Potentiation of yohimbine toxicity on mice
The tests are carried out according to the method of Quinton. Animal groups consisting of 10 mice each are treated with the test compound. After an hour a sublethal dose of yohimbine is administered intraperitoneally at a rate of 20 ml./kg. The killed animals are counted after 1 and 24 hours, respectively.

[5] = tested on: aconitine-induced ECG changes in rats; assay: Antiarrhythmial effect on rats (aconitine, modified method of Marmo et al.); format: in vivo; conditions: aconitine 75 μg./kg. i.v.
Protocol: (6) Antiarrhythmial effect on rats
The test is carried out according to the modified method of Marmo et al. The test animals are narcotized with ethyl urethane (1.2 g./kg. i.p.). Aconitine is administered intravenously in the form of a bolus injection in a dose of 75 μg./kg. The changes of ECG are followed in standard II outlet 5 minutes after the administration of aconitine. The changes observed are evaluated with the aid of a scale from 0 to 5 points. The test compound is administered either intravenously 2 minutes before the addition of aconitine, or orally 1 hour before the aconitine administration.

[6] = tested on: tremorine-induced tremor in mice; assay: Antitremorine effect on mice; format: in vivo
Protocol: (7) Antitremorine effect on mice 20 mg./kg. of tremorine are administered i.p. to mice whereupon after 45 minutes the induced characteristic tremor is registered. The test compounds are administered orally 1 hour before the addition of tremorine.

Which LD50 at 168 h [1] does the source give for `COC1(c2ccc(Cl)cc2)[N-]C=N[n+]2ccc3ccccc3c21` (stereo not drawn) [Compound B, 1-(4-chloro-phenyl)-1-methoxy-as-triazino[6,1-a]isoquinoline-5-ium-2-(1H)-ide] here?
The LD50 at 168 h was 420 mg/kg.

What about the “Ther. index, tetrabenazine ptosis” value [2] of the same compound?
Its value is 1680.

And the ED50 [2]?
Its ED50 is 0.25 mg/kg.

What about the ED50 [3] of the same compound?
Its ED50 is 0.6 mg/kg.

What about the “Ther. index, reserpine ptosis” value (reserpine ptosis on mice) of the same compound?
The value was 280.0.

And the ED50 (reserpine ptosis on mice)?
The ED50 was 1.5 mg/kg.

What about the ED50 (reserpine ptosis on rats) of the same compound?
The ED50 was 34 mg/kg.

What about the ED50 [4] of the same compound?
Its ED50 is 1.2 mg/kg.

What about the “Ther. index, potentiation of yohimbine toxicity” value [4] of the same compound?
Its value is 350.

And the “Inhibition, antiarrhythmial effect” value ([5]; dose 1 mg./kg.)?
The value was 44.3%.

What about the ED50 ([6]; Mus musculus, po, p.o. 1 hour before tremorine 20 mg./kg. i.p.) of the same compound?
Its ED50 is 40 mg/kg.

And the “Ther. index, antitremorine effect” value ([6]; p.o.)?
Its value is 10.5.

Which “Inhibition, antiarrhythmial effect” value ([5]; dose 4 mg./kg.) does the source give for `CCN(CC)CC(=O)Nc1c(C)cccc1C` [Lidocain, α-diethylamino-2,6-dimethyl-acetanilide, reference compound] here?
Its value is 23.4%.

What does the source list for `OC1(c2ccc(Cl)cc2)[N-]C=N[n+]2ccc3ccccc3c21` (stereo not drawn) [Compound A, 1-(4-chloro-phenyl)-1-hydroxy-as-triazino[6,1-a]isoquinoline-5-ium-2-(1H)-ide]?
LD50 at 168 h [1]: 550 mg/kg; Ther. index, tetrabenazine ptosis [2]: 3667; ED50 [2]: 0.15 mg/kg; ED50 [3]: 7 mg/kg; Ther. index, reserpine ptosis (reserpine ptosis on mice): 19.6; ED50 (reserpine ptosis on mice): 28 mg/kg; ED50 (reserpine ptosis on rats): 28 mg/kg; ED50 [4]: 5 mg/kg; Ther. index, potentiation of yohimbine toxicity [4]: 110; Inhibition, antiarrhythmial effect ([5]; dose 1 mg./kg.): 39.6%

Which LD50 at 168 h ([1]; mice, p.o., 7 days observation) does the source give for `O=c1nc(-c2ccc(Cl)cc2)c2c3ccccc3cc[n+]2[n-]1` [Compound C, 1-(4-chloro-phenyl)-as-triazino[6,1-a]isoquinoline-5-ium-2-(1H)-ide-3-one] here?
The LD50 at 168 h was 2000 mg/kg.

What about the “Ther. index, tetrabenazine ptosis” value [2] of the same compound?
The value was 87.

And the ED50 [2]?
The ED50 was 23 mg/kg.

Which “Ther. index, tetrabenazine ptosis” value [2] does the source give for `CN(C)CCC=C1c2ccccc2CCc2ccccc21` [Amitriptyline, N,N-dimethyl-3-[dibenzo[a,d]-cycloheptadiene-5-ylidene]propylamine, reference compound] here?
The value was 19.

And the “Ther. index, reserpine ptosis” value (reserpine ptosis on mice)?
The value was 3.45.

And the ED50 (reserpine ptosis on mice)?
The ED50 was 65 mg/kg.

And the ED50 [4]?
The ED50 was 12.5 mg/kg.

What about the “Ther. index, potentiation of yohimbine toxicity” value [4] of the same compound?
The value was 18.

For `Clc1ccc(-c2ncn[n+]3ccc4ccccc4c23)cc1` [Reference compound D, 1-(4-chloro-phenyl)-as-triazino[6,1-a]isochinolinium-bromide, reference compound], which “Ther. index, tetrabenazine ptosis” value [2] is on record?
The value was 188.

What about the “Ther. index, reserpine ptosis” value (reserpine ptosis on mice) of the same compound?
Its value is “below 5.0”.

What about the ED50 (reserpine ptosis on mice) of the same compound?
The ED50 was greater than 120 mg/kg.

And the ED50 (reserpine ptosis on rats)?
Its ED50 is 60 mg/kg.

What about the “ED50, antitremorine effect” value ([6]; p.o. 1 hour before tremorine 20 mg./kg. i.p.) of the same compound?
Its value is “inactive”.

From patent US4753938A, “Condensed as-triazine derivatives” (Richter Gedeon Vegyeszeti Gyar Rt., priority 1983, dated 1988)
